{
  "source": "patent US6455760B1",
  "about": "“Expression of flavin-containing monoxygenases in plants” (The Salk Institute of Biological Studies, priority 2000, dated 2002)",
  "key": {"yucca mutant": {"test_system": "yucca mutant", "format": "in vivo, Arabidopsis thaliana"}, "[1]": {"test_system": "Arabidopsis WT and yucca mutants", "format": "in vivo, Arabidopsis thaliana", "details": "for sensitivity of yucca mutants to tryptophan analogs: yucca mutants compared with normal toxicity to plants", "experimental": "Enhanced expression of the YUCCA gene overproduces auxin. […] Massive root growth was observed when yucca explants grew in Murashige and Skoog (MS) media. Callus was induced by adding cytokinin, and young yucca plants that are regenerated in MS media containing cytokinin. A GUS reporter gene controlled by an auxin responsive element was expressed at much higher level in yucca. […] In addition, YUCCA appears to be involved in tryptophan-dependent auxin synthesis. […] In the presence of 100 μM 5-methyl tryptophan, WT plant material died while yucca survived."}, "[2]": {"test_system": "Arabidopsis WT and yucca mutants", "experiment": "Auxin transport block by NPA in growth medium, club root development", "format": "in vivo, Arabidopsis thaliana", "text": "It was also discovered that auxin transport in yucca was blocked by application of transport inhibitor naphthylthalamic acid (NPA), resulting in yucca mutants having a giant root, called a “club root” due to its thick, short appearance. This club root was substantially thicker than the regular yucca root, which is already thicker than the WT root. […] The club root produced by blocking auxin transport in yucca mutants may provide an important tool for studying root growth and development."}, "[3]": {"target": "T1, recombinant YUCCA gene product (SEQ ID NO. 2) (Arabidopsis thaliana, UniProt Q9SZY8)", "T1 construct": "2, was recovered from the E. coli overexpression system; made in house; host or cells: E. coli (vector pMalC2)", "T1 sequence (Q9SZY8 1-414)": "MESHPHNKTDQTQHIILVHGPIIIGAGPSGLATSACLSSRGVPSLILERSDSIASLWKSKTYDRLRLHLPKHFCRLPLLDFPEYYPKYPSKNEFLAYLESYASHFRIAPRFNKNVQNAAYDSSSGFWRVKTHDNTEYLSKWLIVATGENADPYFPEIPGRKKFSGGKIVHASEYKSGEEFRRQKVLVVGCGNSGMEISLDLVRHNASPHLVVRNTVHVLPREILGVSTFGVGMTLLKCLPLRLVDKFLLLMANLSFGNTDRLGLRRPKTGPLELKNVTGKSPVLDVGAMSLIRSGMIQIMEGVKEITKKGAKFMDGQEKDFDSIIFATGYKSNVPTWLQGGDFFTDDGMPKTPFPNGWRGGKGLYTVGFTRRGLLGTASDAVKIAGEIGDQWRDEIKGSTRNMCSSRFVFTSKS", "experiment": "FMO activity assay of recombinant YUCCA gene product with tryptamine (TLC, mass spectroscopy)", "format": "biochemical", "details": "2 mM tryptamine, 1 mM NADP+, glucose-6-phosphate, glucose-6-phosphate dehydrogenase, 37° C.", "text": "Enzymatic activity of the YUCCA gene product. In one experiment, the YUCCA gene was transformed into an E. coli overexpression vector and the recombinant YUCCA gene product, a polypeptide having the amino acid sequence of SEQ ID NO. 2, was recovered from the E. coli overexpression system. […] Thus, the amino acid sequence of SEQ ID NO: 2 can be used to metabolize tryptamine, whether endogenous or exogenous, as well as to generate N-hydroxyl tryptamine.\nEffect of YUCCA overexpression in E. coli on detectable FMO activity. To test the enzymatic activity of the YUCCA gene product, YUCCA (SEQ ID NO. 1) was transformed into an E. coli overexpression vector pMalC2 and the recombinant YUCCA gene product was recovered, using the method of Brunelle et al., (Drug Metab Dispos (1997) 25:1001). For activity assays, the recombinant YUCCA gene product was incubated with 2 mM tryptamine, 1 mM NADP^+, 1 mM glucose-6-phosphate, and glucose-6-phosphate dehydrogenase at 37° C. Reactions were stopped by adding an equal volume of methanol. Substrate and products were separated by thin-layer-chromatography (TLC) with CH2CL2/methanol/TEA (75:20:5). The product was eluted from TLC plates and mass spectroscopy was performed to determine the molecular mass of the product."}},
  "note": "“Also recorded” adds a separate entry of the source.",
  "data": [
    {"smiles": "NC1(C(=O)O)CC1", "note": "[ACC, 1-aminocyclopropane-1-carboxylate]", "values": [
      {"measurement": "effect on yucca cotyledon", "setting": "yucca mutant; 5 μM", "result": "did not change the appearance of the yucca cotyledon"},
      {"measurement": "effect on yucca hypocotyl", "setting": "yucca mutant; 5 μM", "result": "suppressed the elongated yucca hypocotyl"}
    ]},
    {"smiles": "Cc1ccc2[nH]cc(C[C@H](N)C(=O)O)c2c1", "note": "[5-methyl tryptophan]", "values": [
      {"measurement": "survival of WT plant material", "setting": "[1]; WT, in the presence of 100 μM", "result": "died"},
      {"measurement": "survival of yucca", "setting": "[1]; yucca mutant, in the presence of 100 μM", "result": "survived"},
      {"measurement": "sensitivity of yucca mutants to tryptophan analogs", "setting": "[1]", "result": "less sensitive"}
    ]},
    {"smiles": "C=C", "note": "[Ethylene]", "values": [
      {"measurement": "effect on the yucca mutant", "setting": "yucca mutant; ethylene treatment", "result": "little effect"}
    ]},
    {"smiles": "N[C@@H](Cc1c[nH]c2ccc(F)cc12)C(=O)O", "note": "[5-fluoro-tryptophan]", "values": [
      {"measurement": "sensitivity of yucca mutants to tryptophan analogs", "setting": "[1]", "result": "less sensitive"}
    ]},
    {"smiles": "O=C(O)c1ccccc1C(=O)Nc1cccc2ccccc12", "note": "[NPA, naphthylthalamic acid]", "values": [
      {"measurement": "club root development in wild type", "setting": "[2]; Wild type (WT) Arabidopsis", "result": "did not develop a club root"},
      {"measurement": "club root development in yucca mutants", "setting": "[2]; 50 μM in the growth medium", "result": "multiple club roots"},
      {"measurement": "club root development in yucca mutants", "setting": "[2]; 100 μM in the growth medium", "result": "a single club root"}
    ]},
    {"smiles": "NCCc1c[nH]c2ccccc12", "note": "[tryptamine]", "values": [
      {"measurement": "substrate conversion by recombinant YUCCA gene product", "setting": "[3]", "result": "able to convert tryptamine to N-hydroxyl tryptamine; also recorded: use tryptamine as a substrate to generate N-hydroxyl tryptamine"}
    ]}
  ]
}
